Assays:
Mus musculus [1] = species: Mus musculus; assay: Cytotoxicity against Balb/c mouse B cells assessed as decrease in cell viability at 10 uM after 48 hrs by MTT assay; format: toxicity, cell-based
[2] = Immunostimulatory activity in Balb/c mouse B cells assessed as induction of LPS-induced cell proliferation at 10 uM after 48 hrs by MTT assay relative to control; format: cell-based
Mus musculus [3] = species: Mus musculus; assay: Cytotoxicity against Balb/c mouse T cells assessed as decrease in cell viability at 1 uM after 48 hrs by MTT assay; format: toxicity, cell-based
[4] = Immunostimulatory activity in Balb/c mouse B cells assessed as induction of LPS-induced cell proliferation at 100 uM after 48 hrs by MTT assay relative to control; format: cell-based
Mus musculus [5] = species: Mus musculus; assay: Cytotoxicity against Balb/c mouse T cells assessed as decrease in cell viability at 10 uM after 48 hrs by MTT assay; format: toxicity, cell-based
[6] = Immunostimulatory activity in Balb/c mouse B cells assessed as induction of LPS-induced cell proliferation at 1 uM after 48 hrs by MTT assay relative to control; format: cell-based
[7] = Immunosuppressive activity in Balb/c mouse T cells assessed as inhibition of ConA-induced cell proliferation at 100 uM after 48 hrs by MTT assay relative to control; format: functional
[8] = Immunosuppressive activity in Balb/c mouse T cells assessed as inhibition of ConA-induced cell proliferation at 10 uM after 48 hrs by MTT assay relative to control; format: functional
Mus musculus [9] = species: Mus musculus; assay: Cytotoxicity against Balb/c mouse B cells assessed as decrease in cell viability at 100 uM after 48 hrs by MTT assay; format: toxicity, cell-based
Mus musculus [10] = species: Mus musculus; assay: Cytotoxicity against Balb/c mouse T cells assessed as decrease in cell viability at 100 uM after 48 hrs by MTT assay; format: toxicity, cell-based
[11] = Immunosuppressive activity in Balb/c mouse T cells assessed as inhibition of ConA-induced cell proliferation at 1 uM after 48 hrs by MTT assay relative to control; format: functional
Mus musculus [12] = species: Mus musculus; assay: Cytotoxicity against Balb/c mouse B cells assessed as decrease in cell viability at 1 uM after 48 hrs by MTT assay; format: toxicity, cell-based
B = assay: Immunosuppressive activity in Balb/c mouse B cells assessed as inhibition of LPS-induced cell proliferation after 48 hrs by MTT assay relative to control; format: functional, cell-based
[13] = Immunosuppressive activity in Balb/c mouse B cells assessed as inhibition of LPS-induced cell proliferation at 50 uM after 48 hrs by MTT assay relative to control; format: functional
[14] = Immunosuppressive activity in Balb/c mouse B cells assessed as inhibition of LPS-induced cell proliferation at 1 uM after 48 hrs by MTT assay relative to control; format: functional
T-cell = assay: Immunosuppressive activity in Balb/c mouse T cells assessed as inhibition of ConA-induced cell proliferation after 48 hrs by MTT assay relative to control; format: functional, cell-based
[15] = Immunosuppressive activity in Balb/c mouse B cells assessed as inhibition of LPS-induced cell proliferation at 10 uM after 48 hrs by MTT assay relative to control; format: functional
[16] = Immunosuppressive activity in Balb/c mouse B cells assessed as inhibition of LPS-induced cell proliferation at 100 uM after 48 hrs by MTT assay relative to control; format: functional

With `CC(=O)Oc1cc(C)c2c(c1C)C[C@H]([C@@H](C)C(=O)OCc1cn(-c3cccc(C#N)c3)nn1)CC2` as the compound, how does the Activity (Mus musculus [1]) read?
The Activity was “Non-Toxic”.

And the Activity [2]?
The Activity was 42.28%.

And the Activity (Mus musculus [3])?
The Activity was “Toxic”.

What about the Activity [4] of the same compound?
Its Activity is 37.71%.

And the Activity (Mus musculus [5])?
Its Activity is “Non-Toxic”.

What about the Activity [6] of the same compound?
Its Activity is 8%.

What about the inhibition at 100 µM [7] of the same compound?
The inhibition at 100 µM was 45.4%.

And the inhibition at 10 µM [8]?
The inhibition at 10 µM was 25.9%.

What about the Activity (Mus musculus [9]) of the same compound?
The Activity was “Toxic”.

What about the Activity (Mus musculus [10]) of the same compound?
The Activity was “Toxic”.

What about the inhibition at 1 µM [11] of the same compound?
Its inhibition at 1 µM is 20.4%.

And the Activity (Mus musculus [12])?
The Activity was “Toxic”.

What does the source list for `CC(=O)Oc1cc(C)c2c(c1C)C[C@H]([C@@H](C)C(=O)O)CC2`?
Activity (Mus musculus [1]): Toxic; inhibition (B): Dose-dependent effect; inhibition at 50 µM [13]: 75%; inhibition at 1 µM [14]: 58.8%; inhibition (T-cell): Dose-dependent effect; inhibition at 10 µM [15]: 57.2%; Activity (Mus musculus [3]): Toxic; Activity (Mus musculus [5]): Toxic; inhibition at 100 µM [16]: 71.8%; inhibition at 100 µM [7]: 75%; inhibition at 10 µM [8]: 52.3%; Activity (Mus musculus [9]): Non-Toxic; Activity (Mus musculus [10]): Non-Toxic; inhibition at 1 µM [11]: 31.8%; Activity (Mus musculus [12]): Toxic

Reference: ChEMBL document CHEMBL3853300, “Synthesis of α-santonin derived acetyl santonous acid triazole derivatives and their bioevaluation for T and B-cell proliferation” (Eur J Med Chem, 2016)
